The values below come from ChEMBL document CHEMBL4190268, “Design, synthesis and biological studies of a library of NK1-Receptor Ligands Based on a 5-arylthiosubstituted 2-amino-4,6-diaryl-3-cyano-4H-pyran core: Switch from antagonist to agonist effect by chemical modification” (Eur J Med Chem, 2017).

Data set [1] deals with T1, Substance-P receptor (Homo sapiens, UniProt P25103). Nature of the data set: Antagonist activity at His6-tagged NK1 receptor (unknown origin) expressed in CHO cells assessed as inhibition of substance-P-induced IP1 accumulation at 5 x 10^-5M preincubated for 10 mins followed by substance-P addition measured after 30 mins by HTRF-FRET assay relative to control. The class given is functional, cell-based.

The target in data set [2] is T1, Substance-P receptor. Nature of the data set: Antagonist activity at His6-tagged NK1 receptor (unknown origin) expressed in CHO cells assessed as inhibition of substance-P-induced IP1 accumulation at 10^-5 M preincubated for 10 mins followed by substance-P addition measured after 30 mins by HTRF-FRET assay relative to control. In kind it is functional, cell-based.

For data set [3], the system named is MRC5. Nature of the data set: cells. The settings on record: Homo sapiens, MRC5, 48 h.
Description: Cytotoxicity against human MRC5 cells after 48 hrs by MTT assay
Data set [4] deals with A549. Nature of the data set: cells. The settings on record: Homo sapiens, A549, 48 h.
Data set [5] has as its target T1, Substance-P receptor. The settings on record: CHO, 10^-7 M.
Description: Antagonist activity at His6-tagged NK1 receptor (unknown origin) expressed in CHO cells assessed as inhibition of substance-P-induced IP1 accumulation at 10^-7 M preincubated for 10 mins followed by substance-P addition measured after 30 mins by HTRF-FRET assay relative to control
Data set [6] deals with T1, Substance-P receptor. Nature of the data set: Partial agonist activity at His6-tagged NK1 receptor (unknown origin) expressed in CHO cells assessed as IP1 accumulation at 5 x 10^-5M measured after 30 mins by HTRF-FRET assay relative to control. In kind it is functional, cell-based.
A short description of data set [7]: Cytotoxicity against human MRC5 cells assessed as cell viability at 320 uM after 48 hrs by MTT assay relative to control. The following applies: read-out: Activity. The class given is cell-based.
For data set [8], the system named is A549. Nature of the data set: Cytotoxicity against human A549 cells assessed as cell viability at 320 uM after 48 hrs by MTT assay relative to control. The class given is functional. The settings on record: A549, 48 h, read-out: Activity.
Data set [9] concerns MRC5. Nature of the data set: Cytotoxicity against human MRC5 cells assessed as cell death at greater than cytotoxic IC50 after 48 hrs by MTT assay relative to control. The class given is cell-based. The settings on record: mrc5, 48 h.
Data set [10] concerns A549. Nature of the data set: Cytotoxicity against human A549 cells assessed as cell death at greater than antiproliferative IC50 after 48 hrs by MTT assay relative to control. The class given is functional.
Data set [11] concerns the target T1, Substance-P receptor. Nature of the data set: Partial agonist activity at His6-tagged NK1 receptor (unknown origin) expressed in CHO cells assessed as IP1 accumulation at 10^-5 M measured after 30 mins by HTRF-FRET assay relative to control. In kind it is functional, cell-based.
Data set [12] has as its target T1, Substance-P receptor. Nature of the data set: Partial agonist activity at His6-tagged NK1 receptor (unknown origin) expressed in CHO cells assessed as IP1 accumulation measured after 30 mins by HTRF-FRET assay. In kind it is functional, cell-based.
Data set [13] has as its system A549. Nature of the data set: Growth inhibition of human A549 cells at 10^3 uM after 48 hrs by MTT assay relative to control. The class given is functional.
In data set [14] the test system is A549. Nature of the data set: Growth inhibition of human A549 cells at 1 mM by inverted microscopic method. In kind it is functional, cell-based.
Data set [15] in a line: Cytotoxicity against human MRC5 cells assessed as cell growth inhibition at 10^3 uM after 48 hrs by MTT assay relative to control. The class given is cell-based. The settings on record: read-out: GI.
Data set [16] concerns the target T1, Substance-P receptor. Nature of the data set: Antagonist activity at His6-tagged NK1 receptor (unknown origin) expressed in CHO cells assessed as inhibition of substance-P-induced IP1 accumulation preincubated for 10 mins followed by substance-P addition measured after 30 mins by HTRF-FRET assay.

Active and inactive are the calls of the source. The calls are words filed in the database; no cut-off is given here.

T1 sequence (P25103 whole entry): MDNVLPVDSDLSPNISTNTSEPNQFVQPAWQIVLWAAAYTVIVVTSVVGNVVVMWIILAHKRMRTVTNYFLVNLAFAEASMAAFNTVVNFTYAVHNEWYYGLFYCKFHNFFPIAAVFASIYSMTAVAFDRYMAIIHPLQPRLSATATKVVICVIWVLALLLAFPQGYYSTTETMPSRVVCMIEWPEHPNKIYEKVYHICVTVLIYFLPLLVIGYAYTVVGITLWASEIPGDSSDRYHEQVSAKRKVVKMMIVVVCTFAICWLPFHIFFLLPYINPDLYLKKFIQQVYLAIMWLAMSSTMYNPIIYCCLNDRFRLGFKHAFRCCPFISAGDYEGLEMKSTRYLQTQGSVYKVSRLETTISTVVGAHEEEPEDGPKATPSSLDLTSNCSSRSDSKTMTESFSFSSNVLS

For `Cc1ccc([S@@+]([O-])C2=C(c3ccccn3)OC(N)=C(C#N)[C@@H]2c2ccc(F)cc2)cc1`, on Substance-P receptor [1], the inhibition turned out to be 11.2%.

Turning to `Cc1ccc([S@@+]([O-])C2=C(c3ccccn3)OC(N)=C(C#N)[C@@H]2c2ccccc2)cc1`, the inhibition is 20.9% on Substance-P receptor [1] and 28.8% on Substance-P receptor [2]. Also, the concentration for half-maximal inhibition (IC50) amounted to 425 µM in the data set on MRC5 [3] and 196 µM in the data set with A549 [4].

`Cc1ccc([S+]([O-])C2=C(c3ccco3)OC(N)=C(C#N)C2c2ccc(Cl)cc2)cc1` (racemic): the inhibition at Substance-P receptor [1] amounted to 12.5%.

For `CC(O)C(=O)O` (configuration not stated) [LACTIC ACID], the results for the concentration for half-maximal inhibition (IC50) in the data set with MRC5 [3] and in the data set with A549 [4] were 23.9 µM and 26.6 µM, respectively.

As for `Cc1ccc([S@+]([O-])C2=C(c3ccccn3)OC(N)=C(C#N)[C@H]2c2ccc(F)cc2)cc1`, the inhibition on Substance-P receptor [1] was 21%.

For the compound `Cc1ccc([S+]([O-])C2=C(c3ccccn3)OC(N)=C(C#N)C2c2ccccc2)cc1` (racemic), the inhibition at Substance-P receptor [1] was 24.4%; at Substance-P receptor [2] it was 35%.

As to `Cc1ccc([S@+]([O-])C2=C(c3ccccn3)OC(N)=C(C#N)[C@H]2c2ccc(Cl)cc2)cc1`, the inhibition at Substance-P receptor [1] stood at 21%; on Substance-P receptor [2], 30%.

Consider `Cc1ccc([S@@+]([O-])C2=C(c3ccccn3)OC(N)=C(C#N)[C@@H]2c2ccc(Cl)cc2)cc1`, for which the inhibition on Substance-P receptor [1] is 5.8%.

Take `COc1ccccc1CN[C@H]1C2CCN(CC2)[C@H]1C(c1ccccc1)c1ccccc1` [CP-96345]: the inhibition on Substance-P receptor [5] turned out to be 85.3%. For the same compound, the IC50 with MRC5 [3] came to 57.9 µM; in the data set on A549 [4], 46.8 µM.

`CC(=O)NC1=C(C#N)[C@H](c2ccc(C)cc2)C([S@+]([O-])c2ccc(C)cc2)=C(c2ccccn2)O1`: the figures for the inhibition on Substance-P receptor [1] and on Substance-P receptor [2] were 37.1% and 21.4%, respectively. In addition, the Activity at Substance-P receptor [6] stood at 30.4%.

Take `COc1ccc([C@@H]2C(C#N)=C(N)OC(c3ccccn3)=C2[S@@+]([O-])c2ccc(C)cc2)cc1`: the viability at 48 h, 320 µM in data set [7] was 70%. The inhibition amounted to 43.9% at Substance-P receptor [1] and 34.5% on Substance-P receptor [2]. Besides, in the data set on A549 [8], the viability at 320 µM came out at 7%. The IC50 with MRC5 [3] worked out at 430 µM; in the data set with A549 [4], 156 µM.

With `Cc1ccc([S@+]([O-])C2=C(c3ccccn3)OC(N)=C(C#N)[C@H]2c2ccccc2)cc1`, the inhibition amounted to 51.1% at Substance-P receptor [1] and 42% at Substance-P receptor [2]. Besides, the Activity is recorded as less than 30% in the data set on MRC5 [9] and “<=80%” in the data set with A549 [10]. Besides, the half-inhibitory concentration (IC50) in the data set on MRC5 [3] is 132 µM; in the data set with A549 [4], 172 µM.

With `Cc1ccc(SC2=C(c3ccccn3)OC(NC(=O)C(F)(F)F)=C(C#N)[C@H]2c2ccc([N+](=O)[O-])cc2)cc1`, at Substance-P receptor [1], the inhibition is 23.8%. The Activity at Substance-P receptor [11] came to 25.9%; on Substance-P receptor [6], 62.3%. In addition, on Substance-P receptor [12], the half-maximal effective concentration (EC50) amounted to 350 µM.

Take `Cc1ccc([C@H]2C(C#N)=C(N)OC(c3ccccn3)=C2[S@+]([O-])c2ccc(C)cc2)cc1`: the figures for the inhibition on Substance-P receptor [1] and at Substance-P receptor [2] were 23.7% and 37.5%, respectively.

As for `COc1ccc([C@H]2C(C#N)=C(N)OC(c3ccccn3)=C2[S@+]([O-])c2ccc(C)cc2)cc1`, the results for the inhibition on Substance-P receptor [1] and on Substance-P receptor [2] were 28.1% and -4.43%, respectively. In addition, in the data set with A549 [13], the “growth inhibition (GI)” value came to 100%. In the data set with A549 [14], the “growth inhibition (GI)” value was “Active”. In data set [15], the inhibition at 48 h, 1000 uM stood at 30%. For the same compound, the half-inhibitory concentration (IC50) with A549 [4] is 508 µM.

For the compound `Cc1ccc(C2C(C#N)=C(N)OC(c3ccccn3)=C2[S+]([O-])c2ccc([N+](=O)[O-])cc2)cc1` (racemic), at Substance-P receptor [1], the inhibition amounted to 38.1%.

Turning to `Cc1ccc([S+]([O-])C2=C(c3ccccn3)OC(N)=C(C#N)C2c2ccc([N+](=O)[O-])cc2)cc1` (racemic), the inhibition on Substance-P receptor [1] amounted to 28.9%; at Substance-P receptor [2], 30%.

For the compound `CC(=O)NC1=C(C#N)[C@@H](c2ccc(C)cc2)C([S@@+]([O-])c2ccc(C)cc2)=C(c2ccccn2)O1`, the inhibition on Substance-P receptor [1] came out at 47.2%; on Substance-P receptor [2] it was 33.3%. Further, the Activity at Substance-P receptor [11] came to 19.8%; at Substance-P receptor [6] it was 30.4%. The IC50 stood at 136 µM in the data set on MRC5 [3] and 108 µM in the data set on A549 [4].

As for `Cc1ccc([S@+]([O-])C2=C(c3ccccn3)OC(N)=C(C#N)[C@H]2c2ccc([N+](=O)[O-])cc2)cc1`, the inhibition on Substance-P receptor [1] stood at 49.7%; at Substance-P receptor [2], 43.3%.

Turning to `Cc1ccc(C2C(C#N)=C(N)OC(c3cc(C(F)(F)F)cc(C(F)(F)F)c3)=C2[S+]([O-])c2ccc(C)cc2)cc1` (racemic), the inhibition at Substance-P receptor [1] turned out to be 11.5%.

As to `Cc1ccc(C2C(C#N)=C(N)OC(c3ccccn3)=C2[S+]([O-])c2ccc(C)cc2)cc1` (racemic), the inhibition on Substance-P receptor [1] is 32.2%; at Substance-P receptor [2], 32.8%.

For the compound `Cc1ccc(SC2=C(c3ccccn3)OC(NC(=O)C(F)(F)F)=C(C#N)[C@H]2c2ccccc2)cc1`, the inhibition at Substance-P receptor [1] worked out at 36.8%; on Substance-P receptor [2], 6.93%. Further, the results for the Activity at Substance-P receptor [11] and on Substance-P receptor [6] were 13.5% and 34.2%, respectively.

For `Cc1ccc([S+]([O-])C2=C(c3ccccn3)OC(N)=C(C#N)C2c2ccc(Cl)cc2)cc1` (racemic), the inhibition was 15.8% on Substance-P receptor [1] and 13.9% at Substance-P receptor [2].

`Cc1ccc([S@+]([O-])C2=C(c3ccccn3)OC(N)=C(C#N)[C@H]2c2cc(C(F)(F)F)cc(C(F)(F)F)c2)cc1`: the inhibition is 28.6% at Substance-P receptor [1] and 30% at Substance-P receptor [2].

As to `N#CC1=C(N)OC(c2ccccn2)=C([S+]([O-])c2ccc([N+](=O)[O-])cc2)C1c1ccc(Cl)cc1` (racemic), at Substance-P receptor [1], the inhibition is 32.2%.

In the case of `N#CC1=C(N)OC(c2ccccn2)=C(S(=O)(=O)c2ccccc2)C1c1ccc([N+](=O)[O-])cc1` (racemic), the figures for the inhibition on Substance-P receptor [1] and at Substance-P receptor [2] were 68.5% and 45.5%, respectively. Also, the IC50 is 200 µM at Substance-P receptor [16], 140 µM in the data set on MRC5 [3] and 148 µM in the data set with A549 [4].

With `Cc1ccc([S@@+]([O-])C2=C(c3ccccn3)OC(N)=C(C#N)[C@@H]2c2ccc([N+](=O)[O-])cc2)cc1`, the inhibition on Substance-P receptor [1] came to 20.6%; at Substance-P receptor [2] it was 18.5%.

On to `Cc1ccc([S+]([O-])C2=C(c3ccccn3)OC(N)=C(C#N)C2c2ccc(F)cc2)cc1` (racemic), for which the inhibition at Substance-P receptor [1] was 2.51%.

As for `N#CC1=C(N)OC(c2ccccn2)=C([S+]([O-])c2ccc([N+](=O)[O-])cc2)C1c1ccccc1` (racemic), the inhibition at Substance-P receptor [1] stood at 56.6%.

As for `N#CC1=C(N)OC(c2ccccn2)=C([S+]([O-])c2ccccc2)C1c1ccc([N+](=O)[O-])cc1` (racemic), the inhibition at Substance-P receptor [1] turned out to be 45.9%; at Substance-P receptor [2], 33.5%.

For the compound `Cc1ccc([C@@H]2C(C#N)=C(N)OC(c3ccccn3)=C2[S@@+]([O-])c2ccc(C)cc2)cc1`, the inhibition at Substance-P receptor [1] stood at 50.8%; on Substance-P receptor [2], 37%.

In the case of `N#CC1=C(N)OC(c2ccccn2)=C([S+]([O-])c2ccccc2)C1c1ccccc1` (racemic), the inhibition was found to be 19.8% at Substance-P receptor [1] and 32% at Substance-P receptor [2].

On to `N#CC1=C(N)OC(c2ccccn2)=C([S+]([O-])c2ccc([N+](=O)[O-])cc2)C1c1ccc([N+](=O)[O-])cc1` (racemic), for which the values for the inhibition at Substance-P receptor [1] and on Substance-P receptor [2] were 56.1% and 35.6%, respectively. The IC50 with MRC5 [3] was found to be 825 µM; in the data set with A549 [4] it was 536 µM.

For the compound `COc1ccc(C2C(C#N)=C(N)OC(c3ccccn3)=C2[S+]([O-])c2ccccc2)cc1` (racemic), the inhibition on Substance-P receptor [1] stood at 11.1%.
